Peptide text beside a SMILES is read from it.
How the values were obtained:
Assay type in all cases: biochemical
HDAC6 = biological target: T1, HDAC6 (Homo sapiens, UniProt Q9UBN7); assay: HDAC6 inhibition, full IC50 measurement (Reaction Biology; fluorogenic p53 peptide RHKK(Ac)AMC)
T1 construct: purchased Reaction Biology Corporation (assay run by the CRO)
T1 sequence (Q9UBN7 1-1215): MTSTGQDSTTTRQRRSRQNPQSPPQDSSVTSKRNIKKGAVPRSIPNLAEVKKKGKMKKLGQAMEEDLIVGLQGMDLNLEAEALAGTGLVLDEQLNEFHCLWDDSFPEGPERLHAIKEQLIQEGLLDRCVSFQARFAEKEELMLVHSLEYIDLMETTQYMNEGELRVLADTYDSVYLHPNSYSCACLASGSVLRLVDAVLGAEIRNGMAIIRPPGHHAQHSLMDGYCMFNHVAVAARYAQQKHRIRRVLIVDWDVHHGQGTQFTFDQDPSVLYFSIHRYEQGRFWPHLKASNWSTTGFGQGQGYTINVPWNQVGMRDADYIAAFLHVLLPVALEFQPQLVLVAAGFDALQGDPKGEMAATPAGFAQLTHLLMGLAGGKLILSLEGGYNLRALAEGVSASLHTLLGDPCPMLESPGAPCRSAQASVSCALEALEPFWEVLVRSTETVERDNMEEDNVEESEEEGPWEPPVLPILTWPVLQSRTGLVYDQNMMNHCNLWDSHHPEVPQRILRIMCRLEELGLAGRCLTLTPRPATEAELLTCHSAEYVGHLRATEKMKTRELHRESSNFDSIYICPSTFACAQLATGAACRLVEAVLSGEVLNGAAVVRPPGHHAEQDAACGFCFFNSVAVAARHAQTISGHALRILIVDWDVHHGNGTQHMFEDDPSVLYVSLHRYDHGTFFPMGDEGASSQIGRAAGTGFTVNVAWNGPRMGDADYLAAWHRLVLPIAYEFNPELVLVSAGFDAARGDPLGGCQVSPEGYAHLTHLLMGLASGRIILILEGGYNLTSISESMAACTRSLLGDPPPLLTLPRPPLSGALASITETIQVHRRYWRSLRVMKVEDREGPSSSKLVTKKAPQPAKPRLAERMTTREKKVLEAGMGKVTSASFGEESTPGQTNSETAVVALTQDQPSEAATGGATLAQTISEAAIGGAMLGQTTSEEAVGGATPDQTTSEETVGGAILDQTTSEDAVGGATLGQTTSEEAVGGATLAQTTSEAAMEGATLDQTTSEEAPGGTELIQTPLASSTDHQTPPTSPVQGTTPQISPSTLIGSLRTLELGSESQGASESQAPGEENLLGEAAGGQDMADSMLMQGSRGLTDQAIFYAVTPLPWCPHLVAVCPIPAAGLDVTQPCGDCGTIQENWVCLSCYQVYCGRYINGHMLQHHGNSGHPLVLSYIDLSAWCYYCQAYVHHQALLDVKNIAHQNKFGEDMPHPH
How it was run: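 Reaction: enzyme plus acoustically dispensed peptide inhibitor, 50 μM RHKK(Ac)AMC substrate, pH 8.0 Tris buffer with BSA and 1% DMSO, 1 h, 30 °C. Duplicates averaged.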

HDAC3 = biological target: T2, HDAC3 (Homo sapiens, UniProt O15379); assay: HDAC3 inhibition, full IC50 measurement (Reaction Biology; fluorogenic p53 peptide RHKK(Ac)AMC)
T2 construct: purchased Reaction Biology Corporation (assay run by the CRO)
Description: (§1) The assay was performed using 50 μM fluorogenic peptide from p53 residues 379-382 [RHKK(Ac)AMC] in a base reaction buffer of 50 mM Tris-HCl at pH 8.0, 137 mM NaCl, 2.7 mM KCl, 1 mM MgCl2, and freshly added 1 mg/ml BSA and 1% DMSO. Peptides were first dissolved in DMSO and then added to the reaction mixture with the enzyme using acoustic technique, enough to reach the desired concentration for that assay point. Peptide concentrations were calculated based on mass of lyophilized peptide and its molecular weight. The substrate was then added and incubated for 1 hour at 30 °C in a sealed container. After the incubation, developer was added to stop the reaction and develop color. Kinetic measurements were then performed for 20 min with Envision with 5 min intervals (Ex/Em = 360/460 nm). The endpoint after plateau was taken for IC50 measurement.
(§2) In cases where duplicate measures are used, average data is reported in the main text or Supplementary Tables.

HDAC8 = biological target: T3, HDAC8 (Homo sapiens, UniProt Q9BY41); assay: HDAC8 inhibition, full IC50 measurement (Reaction Biology; fluorogenic p53 peptide RHKK(Ac)AMC); conditions: t1/t2 replicates
T3 construct: purchased Reaction Biology Corporation (assay run by the CRO)
T3 sequence (Q9BY41 1-377): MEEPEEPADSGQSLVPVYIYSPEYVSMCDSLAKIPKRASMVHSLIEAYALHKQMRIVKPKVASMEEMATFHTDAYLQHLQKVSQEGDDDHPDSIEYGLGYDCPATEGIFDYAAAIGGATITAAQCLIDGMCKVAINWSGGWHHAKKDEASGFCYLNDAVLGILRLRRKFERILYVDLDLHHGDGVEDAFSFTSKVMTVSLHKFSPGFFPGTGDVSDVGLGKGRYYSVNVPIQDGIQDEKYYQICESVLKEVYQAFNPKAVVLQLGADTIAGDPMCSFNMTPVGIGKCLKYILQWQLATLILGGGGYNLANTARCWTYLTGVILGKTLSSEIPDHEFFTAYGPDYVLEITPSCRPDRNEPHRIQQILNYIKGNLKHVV
Description: as §1, §2

T2 sequence (O15379 whole entry): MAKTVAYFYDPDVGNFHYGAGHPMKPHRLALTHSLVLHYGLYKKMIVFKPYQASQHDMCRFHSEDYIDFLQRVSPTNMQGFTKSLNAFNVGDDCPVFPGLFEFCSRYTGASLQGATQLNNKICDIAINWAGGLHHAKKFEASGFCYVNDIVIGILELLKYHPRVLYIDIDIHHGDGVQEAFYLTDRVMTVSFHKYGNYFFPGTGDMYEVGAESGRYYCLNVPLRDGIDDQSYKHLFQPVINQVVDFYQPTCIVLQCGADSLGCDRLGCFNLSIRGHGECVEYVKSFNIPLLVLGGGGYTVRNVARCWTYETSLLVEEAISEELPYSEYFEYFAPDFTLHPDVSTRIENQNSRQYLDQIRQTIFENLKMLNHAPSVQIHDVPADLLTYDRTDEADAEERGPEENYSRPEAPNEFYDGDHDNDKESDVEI
T2 sequence (Q9Y618 395-489 partner limits assumed): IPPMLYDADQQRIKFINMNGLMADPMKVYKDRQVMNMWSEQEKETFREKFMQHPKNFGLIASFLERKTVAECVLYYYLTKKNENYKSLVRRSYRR

## C[C@H](O)[C@H]1NC(=O)[C@H](Cc2c[nH]c3ccccc23)NC(=O)[C@H](CCCCCS)NC(=O)[C@H](CCCCN)NC(=O)[C@@H](CC(=O)O)NC(=O)[C@@H](CCCCN)NC(=O)[C@@H](CO)NC(=O)[C@H](CC(N)=O)NC(=O)[C@H](CC(=O)O)NC1=O [des2.1.0, SHA-Trp-dThr-Asp-Asn-dSer-dLys-dAsp-Lys] (HELM PEPTIDE1{D.N.[dS].[dK].[dD].K.[O=C([C@H](CCCCCS)N[*:1])[*:2]].W.[dT]}$PEPTIDE1,PEPTIDE1,1:R1-9:R2$$$V2.0)
HDAC6; Conc. 1.00E-05 M, t1
  HDAC6 activity raw data (signal): 11243
HDAC6; Conc. 1.00E-05 M, t2
  HDAC6 activity raw data (signal): 1739
HDAC6; Conc. 1.11E-06 M, t1
  HDAC6 activity raw data (signal): 28172
HDAC6; Conc. 1.11E-06 M, t2
  HDAC6 activity raw data (signal): 21097
HDAC6; Conc. 1.23E-07 M, t1
  HDAC6 activity raw data (signal): 158713
HDAC6; Conc. 1.23E-07 M, t2
  HDAC6 activity raw data (signal): 131097
HDAC6; Conc. 1.37E-08 M, t1
  HDAC6 activity raw data (signal): 435775
HDAC6; Conc. 1.37E-08 M, t2
  HDAC6 activity raw data (signal): 375237
HDAC6; Conc. 1.52E-09 M, t1
  HDAC6 activity raw data (signal): 580209
HDAC6; Conc. 1.52E-09 M, t2
  HDAC6 activity raw data (signal): 526073
HDAC6; Conc. 3.33E-06 M, t1
  HDAC6 activity raw data (signal): 12962
HDAC6; Conc. 3.33E-06 M, t2
  HDAC6 activity raw data (signal): 9723
HDAC6; Conc. 3.70E-07 M, t1
  HDAC6 activity raw data (signal): 70613
HDAC6; Conc. 3.70E-07 M, t2
  HDAC6 activity raw data (signal): 63583
HDAC6; Conc. 4.12E-08 M, t1
  HDAC6 activity raw data (signal): 283586
HDAC6; Conc. 4.12E-08 M, t2
  HDAC6 activity raw data (signal): 230477
HDAC6; Conc. 4.57E-09 M, t1
  HDAC6 activity raw data (signal): 537641
HDAC6; Conc. 4.57E-09 M, t2
  HDAC6 activity raw data (signal): 486475
HDAC6; Conc. 5.08E-10 M, t1
  HDAC6 activity raw data (signal): 609077
HDAC6; Conc. 5.08E-10 M, t2
  HDAC6 activity raw data (signal): 536924
HDAC3; Conc. 1.00E-05 M, t1
  HDAC3 activity raw data (signal): 14719
HDAC3; Conc. 1.00E-05 M, t2
  HDAC3 activity raw data (signal): 13801
HDAC3; Conc. 1.11E-06 M, t1
  HDAC3 activity raw data (signal): 92063
HDAC3; Conc. 1.11E-06 M, t2
  HDAC3 activity raw data (signal): 96957
HDAC3; Conc. 1.23E-07 M, t1
  HDAC3 activity raw data (signal): 462933
HDAC3; Conc. 1.23E-07 M, t2
  HDAC3 activity raw data (signal): 478168
HDAC3; Conc. 1.37E-08 M, t1
  HDAC3 activity raw data (signal): 1054714
HDAC3; Conc. 1.37E-08 M, t2
  HDAC3 activity raw data (signal): 1114131
HDAC3; Conc. 1.52E-09 M, t1
  HDAC3 activity raw data (signal): 1368847
HDAC3; Conc. 1.52E-09 M, t2
  HDAC3 activity raw data (signal): 1246343
HDAC3; Conc. 3.33E-06 M, t1
  HDAC3 activity raw data (signal): 35860
HDAC3; Conc. 3.33E-06 M, t2
  HDAC3 activity raw data (signal): 35981
HDAC3; Conc. 3.70E-07 M, t1
  HDAC3 activity raw data (signal): 254333
HDAC3; Conc. 3.70E-07 M, t2
  HDAC3 activity raw data (signal): 260454
HDAC3; Conc. 4.12E-08 M, t1
  HDAC3 activity raw data (signal): 754531
HDAC3; Conc. 4.12E-08 M, t2
  HDAC3 activity raw data (signal): 801621
HDAC3; Conc. 4.57E-09 M, t1
  HDAC3 activity raw data (signal): 1235523
HDAC3; Conc. 4.57E-09 M, t2
  HDAC3 activity raw data (signal): 1319114
HDAC3; Conc. 5.08E-10 M, t1
  HDAC3 activity raw data (signal): 1390666
HDAC3; Conc. 5.08E-10 M, t2
  HDAC3 activity raw data (signal): 1409656
HDAC8; peptide conc. 1.00E-05 M, listed as des2.1.0_t1
  HDAC8 activity raw data (signal): 3317278
HDAC8; peptide conc. 1.00E-05 M, listed as des2.1.0_t2
  HDAC8 activity raw data (signal): 3225773
HDAC8; peptide conc. 1.11E-06 M, listed as des2.1.0_t1
  HDAC8 activity raw data (signal): 14350924
HDAC8; peptide conc. 1.11E-06 M, listed as des2.1.0_t2
  HDAC8 activity raw data (signal): 13274280
HDAC8; peptide conc. 1.23E-07 M, listed as des2.1.0_t1
  HDAC8 activity raw data (signal): 29733699
HDAC8; peptide conc. 1.23E-07 M, listed as des2.1.0_t2
  HDAC8 activity raw data (signal): 29791882
HDAC8; peptide conc. 1.37E-08 M, listed as des2.1.0_t1
  HDAC8 activity raw data (signal): 39649362
HDAC8; peptide conc. 1.37E-08 M, listed as des2.1.0_t2
  HDAC8 activity raw data (signal): 39639123
HDAC8; peptide conc. 1.52E-09 M, listed as des2.1.0_t1
  HDAC8 activity raw data (signal): 48372865
HDAC8; peptide conc. 1.52E-09 M, listed as des2.1.0_t2
  HDAC8 activity raw data (signal): 43623554
HDAC8; peptide conc. 3.33E-06 M, listed as des2.1.0_t1
  HDAC8 activity raw data (signal): 8085277
HDAC8; peptide conc. 3.33E-06 M, listed as des2.1.0_t2
  HDAC8 activity raw data (signal): 7910023
HDAC8; peptide conc. 3.70E-07 M, listed as des2.1.0_t1
  HDAC8 activity raw data (signal): 24973470
HDAC8; peptide conc. 3.70E-07 M, listed as des2.1.0_t2
  HDAC8 activity raw data (signal): 23110500
HDAC8; peptide conc. 4.12E-08 M, listed as des2.1.0_t1
  HDAC8 activity raw data (signal): 39179752
HDAC8; peptide conc. 4.12E-08 M, listed as des2.1.0_t2
  HDAC8 activity raw data (signal): 38239026
HDAC8; peptide conc. 4.57E-09 M, listed as des2.1.0_t1
  HDAC8 activity raw data (signal): 45086009
HDAC8; peptide conc. 4.57E-09 M, listed as des2.1.0_t2
  HDAC8 activity raw data (signal): 40240975
HDAC8; peptide conc. 5.08E-10 M, listed as des2.1.0_t1
  HDAC8 activity raw data (signal): 46468325
HDAC8; peptide conc. 5.08E-10 M, listed as des2.1.0_t2
  HDAC8 activity raw data (signal): 43451568
